Source: patent US9221746B2, “Homo- and hetero-polyamino-acid derivatives of fullerene C60, method for producing same, and pharmaceutical compositions based on said derivatives” (priority 2011, dated 2015)
Marks after values point to notes of the source that are not given here.

Tested on: Lewis carcinoma (3LL)
Assay: Transplantable Lewis carcinoma (3LL) in mice
Format: in vivo
Procedure: These studies were carried out at the Institute for Toxicology, St. Petersburg, 2006, according to “Guidelines for the Study of Antitumor Activity of Pharmacological Agents” (“Manual on Experimental (Preclinical) Study of New Pharmacological Agents,” Ministry of Public Health of the Russian Federation, Remedium, Moscow, 2000, pp. 319-325).
The L1210 leukemia, breast adenocarcinoma Ca-755, and Lewis carcinoma (3LL) tumor cell strain were purchased from the Petrov Research Institute for Oncology, the Ministry of Public Health of the Russian Federation (St. Petersburg).
C 57 BL/6J line male mice with transplanted 3LL cells. Mouse ages: 6 to 8 weeks; body weights: 18 to 24 g.
The antitumor effect was ascertained through the following parameters: • ascite accumulation as animal body weight gain; • the lifetime of animals; and • tumor growth. The larger dimension of the tumor (length) and the smaller dimension normal thereto (width) were measured. The tumor volume was calculated, and the inhibition of tumor growth was calculated by a formula. The ascertainment criterion was the day when each individual tumor reached a volume of 500 mm^3.

Fullerene Poly(Aminocaproic Acid) of Formula C60(H3){NH(CH2)5COO—}3{NH3^+(CH2)5COOH}3 [Agent No. 1]
Day when the tumor reaches a volume of 500 mm³ (100 mg/kg): 21.3 ± 1.21 days | Lifetime, M ± m (100 mg/kg): 55.92 ± 0.98 days | day post transplantation when the first tumors were observed (100 mg/kg): 7 days | Number of large (>3 mm) metastases in lungs, M ± m (100 mg/kg (n = 12)): 5.8 ± 1.91 | Number of metastases in lungs, M ± m (100 mg/kg (n = 12)): 53.5 ± 11.23 | Weight of lungs, mg M + m (100 mg/kg (n = 12)): 491.9 ± 63.72 mg | percent inhibition (average tumor volume) compared to the control group (100 mg/kg, day 10): 71.77% | percent inhibition (average tumor volume) compared to the control group (100 mg/kg, day 17): 58.5% | Day when the tumor reaches a volume of 500 mm³ (100 mg/kg, versus control): 27.3%* | Lifetime, Percent increase (100 mg/kg, versus control): 70.42%* | Day when the tumor reaches a volume of 500 mm³ (250 mg/kg): 20.5 ± 1.20 days | Lifetime, M ± m (250 mg/kg): 56.38 ± 0.68 days | day post transplantation when the first tumors appeared (250 mg/kg): 8 days | Number of large (>3 mm) metastases in lungs, M ± m (250 mg/kg (n = 13)): 5.7 ± 1.54 | Number of metastases in lungs, M ± m (250 mg/kg (n = 13)): 55.8 ± 11.60 | Weight of lungs, mg M + m (250 mg/kg (n = 13)): 505.4 ± 68.82 mg | percent inhibition (average tumor volume) compared to the control group (250 mg/kg, day 10): 84.37% | percent inhibition (average tumor volume) compared to the control group (250 mg/kg, day 17): 54.2% | Day when the tumor reaches a volume of 500 mm³ (250 mg/kg, versus control): 22.9%* | Lifetime, Percent increase (250 mg/kg, versus control): 71.85%* | increase of the average lifetime against the control group (both doses): approximately 70%
